Consider 7 molecules from patent US20240140941A1, “DERIVATIVE OF 2,5-DIKETOPIPERAZINE COMPOUND, AND PREPARATION METHOD THEREFOR, PHARMACEUTICAL COMPOSITION THEREOF AND USE THEREOF” (DALIAN WZ PROBIOTICS AD HEALTH CO., LTD, priority 2020, published 2024).

Series [1] concerns HCC-LM3. The experiment in a line: Inhibition test on cell proliferation (MTT), HCC-LM3. Type of series: cell-based, human. The note with it: 72 hours of drug treatment, MTT; hydrochloride; read-out: IC50 (nM) HCC-LM3. An outline of the steps:
(§1)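 Cells plated at 2000-6000 per well, allowed to adhere for 24 h, then exposed to serially diluted compound for 72 h at 37 °C, 5% CO2. Viability read by MTT reduction, with formazan dissolved in DMSO and absorbance taken at 490 nm. Inhibition rate calculated relative to untreated and zero-setting wells.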

Series [2] has as its system NCI-H460. The experiment in a line: Inhibition test on cell proliferation (MTT), NCI-H460. Type of series: cell-based, human. The note with it: 72 hours of drug treatment, MTT; hydrochloride; read-out: IC50 (nM) NCI-H460. In a few lines:
as §1

The nature of series [3]: Compound solubility experiment, Method 2: about 2 mg salt in 0.2 mL ultrapure water, dissolution observed. In kind it is physicochemical. The note with it: 37 °C, thermodynamic from solid, salts, 37±1° C., shaken 24 hours. Here is the method: Method 2: A 0.5 mL brown EP tube was taken, about 2 mg of hydrochloride of derivatives of 2,5-diketopiperazine compounds was weighed respectively, and 0.2 mL of ultrapure water was added thereto. The mixture was vortexed, put into an incubation shaker, maintained at a temperature of (37±1° C.), shaken at 100 r/min for 24 hours, so as to achieve full dissolution equilibrium. The dissolution of the mixture was observed.

Series [4] deals with HT-29. The series is described as follows: Inhibition test on cell proliferation (MTT), HT-29. Type of series: cell-based, human. The following applies: 72 hours of drug treatment, hydrochloride. In a few lines: as §1
Series [5] has as its system BxPC-3. The series is described as follows: Inhibition test on cell proliferation (MTT), BxPC-3. Type of series: cell-based, human. The following applies: 72 hours of drug treatment, MTT; hydrochloride; read-out: IC50 (nM) BxPC-3. An outline of the steps:
as §1

Where a name gives a salt, the structure may show the parent alone. Bounds are passed on as bounds.

As to `CC(C)c1c(/C=c2\[nH]c(=O)/c(=C/c3cccc(Oc4ccc(F)cc4)c3)[nH]c2=O)ncn1CCCN1CCOCC1` [PLN-2-2-1, hydrochloride], the IC50 in series [1] came out at 1.76 ± 0.3 nM; in series [2], 2.8 ± 1.15 nM; in series [4], 1.5 ± 0.58 nM; in series [5] it was 1.21 ± 0.21 nM. In series [3], the solubility at 24 h was more than 10000 µg/mL.

For the molecule `CC(C)c1c(/C=c2\[nH]c(=O)/c(=C/c3cc(F)ccc3F)[nH]c2=O)ncn1CCCN1CCOCC1` [PLN-2-7-1, (3Z,6Z)-3-(2,5-Difluorophenyl)methylene-6-((5-isopropyl-1-(3-morpholinyl)propylimidazol-4-yl)methylene)piperazine-2,5-dione, hydrochloride], the IC50 is 4 ± 1.5 nM in series [1], 6.93 ± 4.85 nM in series [2], 5.61 ± 1.96 nM in series [4] and 4.83 ± 0.2 nM in series [5]. The solubility at 24 h in series [3] is more than 10000 µg/mL.

Take `CC(C)c1c(/C=c2\[nH]c(=O)/c(=C/c3cccc(F)c3)[nH]c2=O)ncn1CCCN1CCOCC1` [PLN-2-9-1, (3Z,6Z)-3-(3-Fluorophenyl)methylene-6-((5-isopropyl-1-(3-morpholinyl)propylimidazol-4-yl)methylene)piperazine-2,5-dione, hydrochloride]: the IC50 in series [1] turned out to be 6.99 ± 0.59 nM; in series [2], 8.87 ± 0.05 nM; in series [4], 6.22 ± 1.61 nM; in series [5], 5.76 ± 1 nM. Further, in series [3], the solubility at 24 h was more than 10000 µg/mL.

Consider `O=c1[nH]/c(=C\c2ncn(CCCN3CCOCC3)c2C2CC2)c(=O)[nH]/c1=C\c1cccc(F)c1` [PLN-2-10-1, (3Z,6Z)-3-(3-Fluorophenyl)methylene-6-((5-cyclopropyl-1-(3-morpholinyl)propylimidazol-4-yl)methylene)piperazine-2,5-dione, hydrochloride], for which the half-maximal inhibitory concentration (IC50) was found to be 12 ± 2.67 nM in series [1], 18.37 ± 0.13 nM in series [2], 11.1 ± 1.39 nM in series [4] and 12 ± 1.27 nM in series [5]. For the same molecule, the solubility at 24 h in series [3] is more than 10000 µg/mL.

Take `CC(C)c1c(/C=c2\[nH]c(=O)/c(=C/c3ccccc3)[nH]c2=O)ncn1CCCN1CCOCC1` [PLN-2-5-1, (3Z,6Z)-3-Benzylidene-6-((5-isopropyl-1-(3-morpholinyl)propylimidazol-4-yl)methylene)piperazine-2,5-dione, hydrochloride]: the 50% inhibitory concentration (IC50) in series [1] came out at 12.4 ± 2.68 nM; in series [2], 17.8 ± 0.55 nM; in series [4], 11.8 ± 5.52 nM; in series [5], 9.73 ± 0.3 nM. Besides, the solubility at 24 h in series [3] is more than 10000 µg/mL.

With `CC(C)c1c(/C=c2\[nH]c(=O)/c(=C/c3cc(F)cc(F)c3)[nH]c2=O)ncn1CCCN1CCOCC1` [PLN-2-62-1, (3Z,6Z)-3-(3,5-Difluorophenyl)methylene-6-((5-isopropyl-1-(3-morpholinyl)propylimidazol-4-yl)methylene)piperazine-2,5-dione, hydrochloride], the IC50 is 5.32 ± 1.38 nM in series [1], 6.87 ± 0.47 nM in series [2], 3.79 ± 0.04 nM in series [4] and 3.75 ± 0.06 nM in series [5]. The solubility at 24 h in series [3] is more than 10000 µg/mL.

For the molecule `CC(C)c1c(/C=c2\[nH]c(=O)/c(=C/c3ccc(F)c(F)c3)[nH]c2=O)ncn1CCCN1CCOCC1` [PLN-2-63-1, hydrochloride], the IC50 is 66.6 ± 4.98 nM in series [1], 94.7 ± 9.48 nM in series [2] and 50.1 ± 7.79 nM in series [5]. Further, the solubility at 24 h in series [3] was more than 10000 µg/mL.

What is called IC50 is the concentration at which inhibition is half-maximal. By solubility is commonly meant the concentration that dissolves in the medium under given conditions.
